Values of other authors as cited in US20060106004A1, “Unique methods and formulations of bio-identical sex steroids for the treatment of pathophysiologic aberrations of menopause” (priority 2004, published 2006).

Columns and labels:
[1] = test system: mammary carcinoma; conditions: following radiation or carcinogenesis
[2] = test system: metastatic breast cancer; conditions: doses from 2.5 to 15 mg/day
[3] = test system: uterus; conditions: ovariectomized rats

Compound: C[C@]12CC[C@@H]3c4ccc(O)cc4CC[C@H]3[C@@H]1C[C@@H](O)[C@@H]2O [Estriol, estriol]
- reduction of mammary carcinoma rates [1]: 80%
- proportion of women with arrested growth and remission of metastatic lesions [2]: Over ⅓
- stimulation of uterine weights [3]: does not significantly stimulate uterine weights
